According to ChEMBL document CHEMBL4145504, “Jatrophane diterpenoids from Euphorbia sororia as potent modulators against P-glycoprotein-based multidrug resistance” (Eur J Med Chem, 2018):
Calls of active or inactive are those of the source. The calls are words filed in the database; no cut-off is given here.

Tests used:
MCF7 = assay: Cytotoxicity against human MCF7 cells after 48 hrs by MTT assay; type: cell-based; conditions: MCF7, 48 h
[1] = Inhibition of P-gp in human MCF7/ADR cells assessed as potentiation of doxorubicin-induced cytotoxicity after 48 hrs by MTT assay; type: cell-based; conditions: NCI/ADR-RES
[2] = Cytotoxicity against human MCF7 cells assessed as cell survival at 10 uM after 48 hrs by MTT assay relative to control; type: cell-based; conditions: read-out: Survival
P-gp = assay: Therapeutic index, ratio of IC50 for HEK293 cells to EC50 for inhibition of P-gp in human MCF7/ADR cells assessed as potentiation of doxorubicin-induced cytotoxicity; type: toxicity, cell-based; conditions: HEK293 cells (IC50) and MCF7/ADR cells (EC50)
NCI/ADR-RES [3] = assay: Cytotoxicity against human MCF7/ADR cells after 48 hrs by MTT assay; type: cell-based
Homo sapiens [4] = organism: Homo sapiens; assay: Inhibition of P-gp in human MCF7/ADR cells assessed as potentiation of doxorubicin-induced cytotoxicity at 10 uM after 48 hrs by MTT assay relative to control; type: cell-based
[5] = Cytotoxicity against human MCF7/ADR cells assessed as cell survival at 10 uM after 48 hrs by MTT assay relative to control; type: cell-based; conditions: MCF7/ADR cells (NCI/ADR-RES), read-out: Survival
HEK293 = assay: Cytotoxicity against HEK293 cells after 48 hrs by MTT assay; type: cell-based; conditions: Homo sapiens, HEK293, 48 h
[6] = Competitive inhibition of P-gp in human MCF7/ADR cells after 150 mins in presence of doxorubicin by Lineweaver-Burk plot analysis; type: cell-based
Homo sapiens [7] = organism: Homo sapiens; assay: Inhibition of P-gp in human MCF7/ADR cells assessed as concentration required to restore doxorubicin accumulation in cells after 150 mins by fluorescence assay relative to MCF7 cells; type: cell-based
Homo sapiens [8] = organism: Homo sapiens; assay: Inhibition of P-gp in human MCF7/ADR cells assessed as increase in doxorubicin accumulation in cells after 150 mins by fluorescence assay; type: cell-based
[9] = Competitive inhibition of P-gp in human MCF7/ADR cells after 150 mins in presence of doxorubicin by Dixon plot analysis; type: cell-based
NCI/ADR-RES [10] = assay: Inhibition of P-gp expression in human MCF7/ADR cells at 5 to 10 uM after 48 hrs by Western blot analysis; type: functional, cell-based
Homo sapiens [11] = organism: Homo sapiens; assay: Inhibition of P-gp in human MCF7/ADR cells assessed as potentiation of vincristine-induced cytotoxicity at 10 uM after 48 hrs by MTT assay relative to control; type: cell-based
Homo sapiens [12] = organism: Homo sapiens; assay: Stimulation of human Pgp ATPase activity expressed in cell membranes at 50 uM after 1 hr by P-gp Glo assay relative to control
Homo sapiens [13] = organism: Homo sapiens; assay: Inhibition of P-gp in human MCF7/ADR cells assessed as increase in doxorubicin accumulation in cells up to 20 uM after 150 mins by fluorescence assay relative to control; type: cell-based
Homo sapiens [14] = organism: Homo sapiens; assay: Inhibition of P-gp in human MCF7/ADR cells assessed as potentiation of docetaxel-induced cytotoxicity at 10 uM after 48 hrs by MTT assay relative to control; type: cell-based
Homo sapiens [15] = organism: Homo sapiens; assay: Inhibition of P-gp mediated efflux in human MCF7/ADR cells after 4 hrs by Rh123 dye-based flow cytometric method; type: cell-based
Homo sapiens [16] = organism: Homo sapiens; assay: Stimulation of human Pgp ATPase activity expressed in cell membranes at 2.5 uM after 1 hr by P-gp Glo assay relative to control
Homo sapiens [17] = organism: Homo sapiens; assay: Inhibition of P-gp in human MCF7/ADR cells assessed as potentiation of doxorubicin-induced cytotoxicity at 1 uM preincubated with cells followed by compound washout and subsequent incubation for 6 hrs prior to addition of doxorubicin and measured after 48 hrs by MTT assay relative to control; type: cell-based

SMILES | IC50 (MCF7) | EC50 [1] | viability at 48 h, 10 µM [2] | selectivity ratio (P-gp) | IC50 (NCI/ADR-RES [3]) | fold change (FC) (Homo sapiens [4]) | viability at 48 h, 10 µM [5] | IC50 (HEK293) | Ki [6] | Activity (Homo sapiens [7]) | inhibition (Homo sapiens [8]) | Ki [9] | inhibition (NCI/ADR-RES [10]) | fold change (FC) (Homo sapiens [11]) | fold change (FC) (Homo sapiens [12]) | fold change (FC) (Homo sapiens [13]) | fold change (FC) (Homo sapiens [14]) | inhibition (Homo sapiens [15]) | fold change (FC) (Homo sapiens [16]) | fold change (FC) (Homo sapiens [17])
CC(=O)O[C@H]1[C@@H](OC(C)=O)C(C)(C)/C=C/[C@H](C)[C@H](OC(C)=O)[C@@]2(O)C[C@@](C)(OC(C)=O)[C@H](O)[C@@H]2[C@H]2OC(=O)CC[C@@]2(OC(=O)c2ccccc2)[C@@H]1OC(=O)C(C)C | 64.8 µM | 0.125 µM | 98.5% | 346 | > 100 µM | 13 | > 100% | 43.1 µM |  |  |  |  |  |  |  |  |  |  |  | 
C=C1[C@H](OC(=O)C(C)C)[C@@H](OC(C)=O)[C@@H](OC(C)=O)C(C)(C)/C=C/[C@H](C)[C@H](O)[C@@]2(O)C[C@@](C)(OC(=O)C(C)C)[C@H](OC(C)=O)[C@@H]2[C@H]1OC(=O)c1ccccc1 | > 100 µM | 0.124 µM | 88% | 512 | > 100 µM | 20.6 | 91.1% | 63.8 µM |  |  |  |  |  |  |  |  |  |  |  | 
C=C1[C@H](OC(C)=O)[C@H]2[C@@H](OC(C)=O)[C@@H](C)C[C@]2(OC(C)=O)C(=O)[C@@H](C)/C=C/C(C)(C)C(=O)[C@H](OC(C)=O)[C@H]1OC(=O)C(C)C | > 100 µM |  | 91.9% |  | > 100 µM | 9.99 | 96.2% |  |  |  |  |  |  |  |  |  |  |  |  | 
COc1ccc(CCN(C)CCCC(C#N)(c2ccc(OC)c(OC)c2)C(C)C)cc1OC (stereo not drawn) | 48.9 µM |  | 83.4% |  |  |  | 90.2% |  | 2.88 µM | 40 µM | Dose-dependent effect | 2.92 µM |  |  |  |  |  |  |  | 
C=C1[C@H](OC(C)=O)[C@H]2[C@@H](OC(C)=O)[C@@H](C)C[C@]2(OC(C)=O)C(=O)[C@@H](C)/C=C/C(C)(C)C(=O)[C@H](OC(C)=O)[C@H]1OC(=O)CC | > 100 µM |  | 85.6% |  | > 100 µM | 6.65 | 94.8% |  |  |  |  |  |  |  |  |  |  |  |  | 
C=C1CCC(=O)C(C)(C)/C=C/[C@H](C)C(=O)[C@@]2(OC(C)=O)C[C@H](C)[C@H](O)[C@@H]2[C@H]1OC(=O)c1ccccc1 | 70.9 µM |  | 95.6% |  | 90.9 µM | 3.52 | 90.4% |  |  |  |  |  |  |  |  |  |  |  |  | 
C=C1[C@H](OC(=O)C(C)C)[C@@H](OC(C)=O)[C@@H](OC(C)=O)C(C)(C)/C=C/[C@H](C)[C@H](OC(=O)c2ccccc2)[C@@]2(O)C[C@@](C)(OC(C)=O)[C@H](OC(C)=O)[C@@H]2[C@H]1OC(=O)c1ccccc1 | 53.9 µM | 0.0929 µM | 93.2% | 661 | > 100 µM | 20.9 | 97.7% | 61.4 µM |  |  |  |  |  |  |  |  |  |  |  | 
CC(=O)O[C@H]1[C@@H](OC(C)=O)C(C)(C)/C=C/[C@H](C)[C@@H](OC(C)=O)[C@@]2(O)C[C@@](C)(OC(C)=O)[C@@H]3OC(=O)CC[C@@](O)([C@@H]1OC(=O)C(C)C)[C@H](OC(=O)c1ccccc1)[C@@H]32 | 83.2 µM | 0.145 µM | 93.2% | 368 | 93 µM | 17.1 | > 100% | 53.4 µM |  |  |  |  |  |  |  |  |  |  |  | 
C=C1[C@H](OC(=O)C(C)C)[C@@H](OC(C)=O)[C@@H](OC(C)=O)C(C)(C)/C=C/[C@H](C)[C@H](OC(=O)c2ccccc2)[C@@]2(O)C[C@@](C)(OC(C)=O)[C@H](OC(C)=O)[C@@H]2[C@H]1OC(=O)C(C)CC (stereo partly drawn) | > 100 µM | 0.0927 µM | 91.4% | 1060 | > 100 µM | 36.8 | 91.8% | 98.2 µM | 0.49 µM | 10 µM | Dose-dependent effect | 0.5 µM | inactive | 2.17 | 2.22 | 2.15 | 3.42 | Dose-dependent effect | 1.34 | 1.43
C=C1[C@H](OC(=O)CC)[C@@H](OC(C)=O)[C@@H](OC(C)=O)C(C)(C)/C=C/[C@H](C)[C@H](OC(=O)c2ccccc2)[C@@]2(O)C[C@@](C)(OC(C)=O)[C@H](OC(C)=O)[C@@H]2[C@H]1OC(=O)C(C)C | > 100 µM | 0.136 µM | 83.3% | 438 | > 100 µM | 13.5 | 92.5% | 59.4 µM |  |  |  |  |  |  |  |  |  |  |  | 
CC(=O)O[C@H]1[C@@H](OC(C)=O)C(C)(C)[C@@H]2O[C@H]2[C@H](C)[C@H](OC(C)=O)[C@]2(O)[C@H]3[C@@H](OC(=O)c4ccccc4)[C@@](O)(CCC(=O)O[C@H]3[C@](C)(OC(C)=O)[C@H]2OC(C)=O)[C@@H]1OC(C)=O | > 100 µM |  | 94.9% |  | > 100 µM | 0.69 | 93% |  |  |  |  |  |  |  |  |  |  |  |  | 
C=C1[C@H](OC(=O)C(C)C)[C@@H](OC(C)=O)[C@@H](OC(C)=O)C(C)(C)/C=C/[C@H](C)[C@H](OC(=O)c2ccccc2)[C@@]2(O)C[C@@](C)(OC(C)=O)[C@H](OC(C)=O)[C@@H]2[C@H]1OC(=O)C(C)C | > 100 µM |  | 94.3% |  | > 100 µM | 10 | 94.5% |  |  |  |  |  |  |  |  |  |  |  |  | 
C=C1[C@H](OC(=O)C(C)C)[C@@H](OC(C)=O)[C@@H](OC(C)=O)C(C)(C)/C=C/[C@H](C)[C@H](OC(=O)c2ccccc2)[C@@]2(O)C[C@@](C)(OC(C)=O)[C@H](OC(C)=O)[C@@H]2[C@H]1OC(=O)CC | > 100 µM | 0.178 µM | 93.3% | 378 | > 100 µM | 12.5 | 92.8% | 67.2 µM |  |  |  |  |  |  |  |  |  |  |  | 
C=C1[C@H](OC(=O)C(C)C)[C@@H](OC(C)=O)[C@@H](OC(C)=O)C(C)(C)/C=C/[C@H](C)C(=O)[C@@]2(O)C[C@@](C)(OC(C)=O)[C@H](OC(C)=O)[C@@H]2[C@H]1OC(=O)c1ccccc1 | > 100 µM |  | 92.4% |  | > 100 µM | 9.29 | 90.3% |  |  |  |  |  |  |  |  |  |  |  |  | 
C=C1[C@H](OC(=O)C(C)C)[C@@H](OC(C)=O)[C@@H](OC(C)=O)C(C)(C)/C=C/[C@H](C)[C@H](OC(C)=O)[C@@]2(O)C[C@@](C)(OC(C)=O)[C@H](OC(C)=O)[C@@H]2[C@H]1OC(=O)c1ccccc1 | > 100 µM |  | 94.6% |  | > 100 µM | 10.2 | > 100% |  |  |  |  |  |  |  |  |  |  |  |  | 
C=C1[C@@H](OC(C)=O)[C@@H]2[C@H](OC(=O)c3ccccc3)[C@](C)(OC(=O)C(C)C)C[C@]2(OC(C)=O)C(=O)[C@H](C)/C=C/C(C)(C)[C@H](OC(C)=O)[C@H](OC(C)=O)[C@H]1OC(=O)C(C)C | > 100 µM | 0.196 µM | 92.3% | 196 | > 100 µM | 11.2 | 91.2% | 38.5 µM |  |  |  |  |  |  |  |  |  |  |  | 
